Three compounds from patent publication US20080089860A1, “Therapeutic compositions and methods useful in treating cancer” (priority 2006, published 2008) can be followed below.

Test [1] has as its target T1, SHP-1 (Mus musculus, UniProt P29351).
T1 construct: made in house
Nature of the test: In vitro PTPase assay, GST/SHP-1. In kind it is biochemical. The settings on record: for inhibitory activity against SHP-1: 3-4 μg/ml or 10-100 μg/ml. How it is done: In vitro PTPase activities were measured using the commercial protein tyrosine phosphatase assay kit (Upstate Biotechnology, Inc. (“UBI”)) following established procedure known to one of skill in the art. […] Briefly, 0.01 µg of GST/PTPase fusion proteins was incubated in 50 µl of Tris buffer (10 mM Tris, pH 7.4) containing different concentrations of inhibitors or chemicals (0-1,000 µg/ml) at 22° […] 100 µl of Malachite Green solution was added and incubated for 5 minutes, and the absorbance at 660 nm was measured after 5 minutes.
To assess the reversibility of inhibition of SHP-1 by PTPase inhibitors, GST/SHP-1 fusion protein bound on glutathione beads were pre-incubated in cold Tris buffer or Tris buffer containing the PTPase inhibitors at 4° C. for 30 minutes. The beads were then either subjected to in vitro PTPase assays or washed 3 times in Tris buffer then subjected to in vitro PTPase assays.
Briefly, individual PTPases (0.1 µg/reaction) in 50 µL of PTPase buffer (50 mM Tris, pH 7.4) were incubated at 22° C. for 10 minutes or as indicated in the absence or presence of inhibitory compounds. Substrates (0.2 mM phosphotyrosine peptide) were then added and allowed to react at 22° C. for 18 hrs. PTPase activity of individual reactions was measured by adding 100 µL of malachite green solution (UBI) and then quantifying the amounts of free phosphate cleaved by the PTPase from the peptide substrate by spectrometry (OD660 nm). […] Relative PTPase activities were calculated based on the formula: (PTPase activity in the presence of an inhibitory compound/PTPase activity in the absence of the compound)× 100%. To assess the reversibility of PTPase inhibition, GST fusion proteins of the PTPases bound on glutathione beads (Pharmacia) were pre-incubated with cold Tris buffer (50 mM Tris, pH 7.0) or Tris buffer containing the inhibitor at 4° C. for 30 minutes. The beads were then washed three times in cold Tris buffer or not washed prior to subjecting to in vitro PTPase assays.

Test [2] has as its target T2, PRL-3 (Homo sapiens, UniProt O75365).
T2 construct: made in house; host or cells: E. coli DH5a
Nature of the test: In vitro PTPase assay, recombinant PRL-3. In kind it is biochemical. The settings on record: for PRL-3 PTPase activity remaining: 0.1-100 μg/ml. An excerpt: Sodium stibogluconate, suramin, sodium orthovanadate and GST fusion protein of SHP-1 have been described previously (Pathak et al., J. Imumol. 167, 3391 (2001)). Meglumine antimonate was obtained from Aventis. cDNAs of human PRL-1, PRL-2 and PRL-3 coding region were derived by RT-PCR from H9 cells (Safai, et al., Lancet 1, 1438 (1984)) and inserted in frame into the pGEX vector. cDNA of PRL-1R86 was generated by recombinant DNA technique using PRL-1 cDNA as template following established procedures (Jiao, et al., Mol. Cell. Biol. 16, 6985 (1996)). GST fusion proteins of the PRL phosphatases were prepared from DH5a bacteria transformed with the pGEX fusion protein constructs as described previously (Yi, et al., Mol. Cell. Biol. 12, 836 (1992)). cDNAs encoding the PRLs tagged at the N-termini with the Flag epitope (Castrucci, et al., J. Virol. 66, 4647 (1992)) were generated via recombinant DNA technique, sequenced to confirm their identities and cloned into the pBabepuro vector (Yang, et al., Blood 91, 3746 (1998)). Anti-Flag monoclonal antibody (M2, Sigma) was purchased from a commercial source. A synthetic phosphotyrosine peptide (Arg-Arg-Leu-Ile-Glu-Asp-Ala-Gle-Tyr-Al- -a-Ala-Arg-Gly (SEQ ID NO: 3), wherein the tyrosine is phosphorylated; UBI) and DiFMUP (6,8-difluoro-4-methylumbelliferyl phosphate, Molecular Probes) were purchased as substrates for PTPase assays.
In vitro PTPase assays were used to determine the effects of compounds on recombinant PTPases, following established procedures using a synthetic phosphotyrosine peptide or DiFMUP as the substrate (Pathak et al., J. Imumol. 167, 3391 (2001)). Briefly, individual PTPases (0.1 µg/reaction) in 50 µL of PTPase buffer (50 mM Tris, pH 7.4) were incubated at 22° C. for 10 minutes or as indicated in the absence or presence of inhibitory compounds. Substrates (0.2 mM phosphotyrosine peptide) were then added and allowed to react at 22° C. for 18 hrs. PTPase activity of individual reactions was measured by adding 100 µL of malachite green solution (UBI) and then quantifying the amounts of free phosphate cleaved by the PTPase from the peptide substrate by spectrometry (OD660 nm). PTPase assays using DiFMUP as a substrate were conducted following a previously described procedure (Matter, et al., Biochem. Biophys. Res. Comm. 283, 1061 (2001)). Relative PTPase activities were calculated based on the formula: (PTPase activity in the presence of an inhibitory compound/PTPase activity in the absence of the compound)× 100%. To assess the reversibility of PTPase inhibition, GST fusion proteins of the PTPases bound on glutathione beads (Pharmacia) were pre-incubated with cold Tris buffer (50 mM Tris, pH 7.0) or Tris buffer containing the inhibitor at 4° C. for 30 minutes. The beads were then washed three times in cold Tris buffer or not washed prior to subjecting to in vitro PTPase assays.

T1 sequence (P29351 whole entry): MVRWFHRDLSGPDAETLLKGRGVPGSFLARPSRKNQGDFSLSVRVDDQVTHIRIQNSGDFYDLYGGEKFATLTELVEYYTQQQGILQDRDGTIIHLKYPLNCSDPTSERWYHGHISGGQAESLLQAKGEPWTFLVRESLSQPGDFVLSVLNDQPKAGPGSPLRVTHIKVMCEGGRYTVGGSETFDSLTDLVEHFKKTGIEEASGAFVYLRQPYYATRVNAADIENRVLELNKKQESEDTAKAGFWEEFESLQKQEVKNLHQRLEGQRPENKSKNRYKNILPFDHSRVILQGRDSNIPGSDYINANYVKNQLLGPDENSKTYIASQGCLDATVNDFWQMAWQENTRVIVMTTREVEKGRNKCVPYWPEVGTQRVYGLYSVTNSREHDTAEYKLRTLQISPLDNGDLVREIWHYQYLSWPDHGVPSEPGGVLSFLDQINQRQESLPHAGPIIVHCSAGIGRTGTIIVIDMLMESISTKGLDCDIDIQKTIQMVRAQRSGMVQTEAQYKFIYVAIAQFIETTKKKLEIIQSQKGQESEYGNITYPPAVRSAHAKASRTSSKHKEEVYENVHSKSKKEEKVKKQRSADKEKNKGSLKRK
T2 sequence (O75365 whole entry): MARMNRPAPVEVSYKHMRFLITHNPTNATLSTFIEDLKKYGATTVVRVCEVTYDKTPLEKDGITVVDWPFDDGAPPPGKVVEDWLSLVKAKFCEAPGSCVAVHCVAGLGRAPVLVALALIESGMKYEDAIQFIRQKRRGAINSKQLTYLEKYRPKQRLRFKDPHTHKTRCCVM

As to `CC(=O)N1CCN(c2ccc(OCC3COC(Cn4ccnc4)(c4ccc(Cl)cc4Cl)O3)cc2)CC1` (stereo not drawn) [ketoconazole], the “inhibitory activity against SHP-1” value in test [1] is recorded as “no obvious inhibitory activity”. Moreover, the “PRL-3 PTPase activity remaining” value in test [2] is on record as 25-40%.
For `N=C(N)c1ccc(OCCCCCOc2ccc(C(=N)N)cc2)cc1` [pentamidine], in that order: “no obvious inhibitory activity” and 20-30%.
As to `O.O.O.O.O.O.O.O.O.O=C([O-])[C@@H]1[O][Sb]2([O-])([O][Sb]34([OH])[O][C@H]([C@H](O)CO)[C@H]([O]3)[C@H](C(=O)[O-])[O]4)[O][C@H]([C@H](O)CO)[C@@H]1[O]2.[Na+].[Na+].[Na+]` [sodium stibogluconate], the “activity against recombinant SHP-1” value in test [1] (HPLC fractions, parental mixture at Sb 10 μg/ml) is “inactivated SHP-1”. The “dephosphorylation of pNPP by these PTPases” value in test [1] (pNPP substrate, SHP-1, SHP-2 and PTP1B) is recorded as “similarly inhibited”. For the same compound, the “inhibition of GST/SHP-1 after washing (reversibility)” value in test [1] (pre-incubated with inhibitor, beads washed) is “not affected by washing”. Also, in test [2], the “inhibition of PRL-3 after washing” value is reported as “not relieved by a washing process”. Besides, the “inactivation of PRL-3” value in test [2] (10 μg/ml, pre-incubation 30 or 60 minutes) was “nearly complete inactivation”.
